Data from patent US20250129054A1 (Terran Biosciences Inc., priority 2022, published 2025).

Assay: Serial tail vein bleed PK study in SD rats: methylone measured in plasma after IV or oral methylone or oral methylone prodrugs
Assay type: in vivo, Sprague Dawley rats
Conditions: 10 mg/kg, rat
Procedure: A pharmacokinetic (PK) study was performed in three male Sprague-Dawley (SD) rats following intravenous (IV) and oral (PO) administration of methylone at 1 mg/kg (IV) and 10 mg/kg (PO) respectively, or test compounds (prodrugs of methylone) at 10 mg/kg (PO). Parent compound (methylone) was measured in plasma.
Samples were sent for method optimization and measurement of parent compound (methylone) via unique calibration lines and following acceptance QC's. Dose formulation concentrations were also measured, and PK parameters were determined (Cmax (ng/mL), Tmax (hr), Cl (ml/min/kg), Vdss (L/kg), t½(hr), AUC0-t (ng/mL*hr), AUC0-inf (ng/mL*hr), MIRT (hr), Bioavailability ([…]) where warranted) using WinNon Lin software. Data (including bioanalytical results and assay performance) were reported in a tabulated format.
Formulation for PO Administration: For PO dosing, the prodrug was formulated in 10% DMSO/20% PEG400/70% water to a concentration of 2 mg free metabolite material/mL. This provided a dose of 10 mg free metabolite/kg when the prodrug was administered PO in 5 mL/kg dosing volumes.
Formulation for IV administration: For IV dosing, rac-methylone was formulated as solution in saline to a concentration of 0.5 mg free metabolite material/mL. This provided a dose of 1 mg free metabolite/kg when administered IV in 2 mL/kg dosing volumes.
The pharmacokinetic properties of the synthesized methylone prodrugs after oral administration in a rat model were assessed. The concentration of methylone was measured in each rat at various sampling timepoints after IV or oral administration of rac-methylone or the synthesized methylone prodrugs to rats.
Dose formulations were made at equivalent concentrations of active compound (methylone) adjusted for molecular weight of the compounds. The synthesized methylone prodrugs or analogs were dosed at 10 mg/kg oral (PO) nominal dose. Nominal doses were used in PK parameter determinations. The parent compound (methylone) was dosed at 1 mg/kg intravenous (IV) and 10 mg/kg (PO).

[1] = 0.500 h after oral dosing of the prodrug, individual animals
[2] = 0.500 h after oral dosing of the prodrug, mean
[3] = 1.00 h after oral dosing of the prodrug, individual animals
[4] = 1.00 h after oral dosing of the prodrug, mean
[5] = 2.00 h after oral dosing of the prodrug, individual animals
[6] = 2.00 h after oral dosing of the prodrug, mean
[7] = 4.00 h after oral dosing of the prodrug, individual animals
[8] = 4.00 h after oral dosing of the prodrug, mean
[9] = 7.00 h after oral dosing of the prodrug, individual animals
[10] = 7.00 h after oral dosing of the prodrug, mean
[11] = 24.0 h after oral dosing of the prodrug, individual animals
[12] = 24.0 h after oral dosing of the prodrug, mean

SMILES | Plasma Concentrations of metabolite methylone [1] | Plasma Concentrations of metabolite methylone [2] | Plasma Concentrations of metabolite methylone [3] | Plasma Concentrations of metabolite methylone [4] | Plasma Concentrations of metabolite methylone [5] | Plasma Concentrations of metabolite methylone [6] | Plasma Concentrations of metabolite methylone [7] | Plasma Concentrations of metabolite methylone [8] | Plasma Concentrations of metabolite methylone [9] | Plasma Concentrations of metabolite methylone [10] | Plasma Concentrations of metabolite methylone [11] | Plasma Concentrations of metabolite methylone [12]
CC(C(=O)c1ccc2c(c1)OCO2)N(C)C(=O)C(C)(C)C (stereo not drawn) [PG, N-[2-(1,3-Benzodioxol-5-yl)-1-methyl-2-oxo-ethyl]-N-2,2-trimethyl-propanamide] | BLQ (Below Lower Limit of Quantification (0.5 ng/mL)) | BLQ (Below Lower Limit of Quantification (0.5 ng/mL)) | BLQ (Below Lower Limit of Quantification (0.5 ng/mL)) | BLQ (Below Lower Limit of Quantification (0.5 ng/mL)) | BLQ (Below Lower Limit of Quantification (0.5 ng/mL)) | BLQ (Below Lower Limit of Quantification (0.5 ng/mL)) | BLQ (Below Lower Limit of Quantification (0.5 ng/mL)) | BLQ (Below Lower Limit of Quantification (0.5 ng/mL)) | BLQ (Below Lower Limit of Quantification (0.5 ng/mL)) | BLQ (Below Lower Limit of Quantification (0.5 ng/mL)) | BLQ (Below Lower Limit of Quantification (0.5 ng/mL)) | BLQ (Below Lower Limit of Quantification (0.5 ng/mL))
CC(C)COC(=O)N(C)C(C)C(=O)c1ccc2c(c1)OCO2 (stereo not drawn) [Compound 1D, iso-Butyl N-[2-(1,3-benzodioxol-5-yl)-1-methyl-2-oxo-ethyl]-N-methyl-carbamate] | BLQ (Below Lower Limit of Quantification (0.5 ng/mL)) | BLQ (Below Lower Limit of Quantification (0.5 ng/mL)) | BLQ (Below Lower Limit of Quantification (0.5 ng/mL)) | BLQ (Below Lower Limit of Quantification (0.5 ng/mL)) | BLQ (Below Lower Limit of Quantification (0.5 ng/mL)) | BLQ (Below Lower Limit of Quantification (0.5 ng/mL)) | BLQ (Below Lower Limit of Quantification (0.5 ng/mL)) | BLQ (Below Lower Limit of Quantification (0.5 ng/mL)) | BLQ (Below Lower Limit of Quantification (0.5 ng/mL)) | BLQ (Below Lower Limit of Quantification (0.5 ng/mL)) | BLQ (Below Lower Limit of Quantification (0.5 ng/mL)) | BLQ (Below Lower Limit of Quantification (0.5 ng/mL))
CC(C(=O)c1ccc2c(c1)OCO2)N(C)C(=O)CN(C)C (stereo not drawn) [Compound 3B, N-[2-(1,3-Benzodioxol-5-yl)-1-methyl-2-oxo-ethyl]-2-(dimethylamino)-N-methyl-acetamide] | BLQ (Below Lower Limit of Quantification (0.5 ng/mL)) | BLQ (Below Lower Limit of Quantification (0.5 ng/mL)) | BLQ (Below Lower Limit of Quantification (0.5 ng/mL)) | BLQ (Below Lower Limit of Quantification (0.5 ng/mL)) | BLQ (Below Lower Limit of Quantification (0.5 ng/mL)) | BLQ (Below Lower Limit of Quantification (0.5 ng/mL)) | BLQ (Below Lower Limit of Quantification (0.5 ng/mL)) | BLQ (Below Lower Limit of Quantification (0.5 ng/mL)) | BLQ (Below Lower Limit of Quantification (0.5 ng/mL)) | BLQ (Below Lower Limit of Quantification (0.5 ng/mL)) | BLQ (Below Lower Limit of Quantification (0.5 ng/mL)) | BLQ (Below Lower Limit of Quantification (0.5 ng/mL))
CC(C(=O)c1ccc2c(c1)OCO2)N(C)C(=O)OC(C)(C)C (stereo not drawn) [Compound 2A, tert-Butyl N-[2-(1,3-benzodioxol-5-yl)-1-methyl-2-oxo-ethyl]-N-methyl-carbamate] | BLQ (Below Lower Limit of Quantification (0.5 ng/mL)) | BLQ (Below Lower Limit of Quantification (0.5 ng/mL)) | BLQ (Below Lower Limit of Quantification (0.5 ng/mL)) | BLQ (Below Lower Limit of Quantification (0.5 ng/mL)) | BLQ (Below Lower Limit of Quantification (0.5 ng/mL)) | BLQ (Below Lower Limit of Quantification (0.5 ng/mL)) | BLQ (Below Lower Limit of Quantification (0.5 ng/mL)) | BLQ (Below Lower Limit of Quantification (0.5 ng/mL)) | BLQ (Below Lower Limit of Quantification (0.5 ng/mL)) | BLQ (Below Lower Limit of Quantification (0.5 ng/mL)) | BLQ (Below Lower Limit of Quantification (0.5 ng/mL)) | BLQ (Below Lower Limit of Quantification (0.5 ng/mL))
CC(C(=O)c1ccc2c(c1)OCO2)N(C)C(=O)C(F)(F)F (stereo not drawn) [Compound 2B, N-[2-(1,3-Benzodioxol-5-yl)-1-methyl-2-oxo-ethyl]-2,2,2-trifluoro-N-methyl-acetamide] | BLQ (Below Lower Limit of Quantification (0.5 ng/mL)) | BLQ (Below Lower Limit of Quantification (0.5 ng/mL)) | BLQ (Below Lower Limit of Quantification (0.5 ng/mL)) | BLQ (Below Lower Limit of Quantification (0.5 ng/mL)) | BLQ (Below Lower Limit of Quantification (0.5 ng/mL)) | BLQ (Below Lower Limit of Quantification (0.5 ng/mL)) | BLQ (Below Lower Limit of Quantification (0.5 ng/mL)) | BLQ (Below Lower Limit of Quantification (0.5 ng/mL)) | BLQ (Below Lower Limit of Quantification (0.5 ng/mL)) | BLQ (Below Lower Limit of Quantification (0.5 ng/mL)) | BLQ (Below Lower Limit of Quantification (0.5 ng/mL)) | BLQ (Below Lower Limit of Quantification (0.5 ng/mL))
